Read-outs that look alike come from different tables or passages of the source.
Test system: E. multilocularis metacestodes
Assay: PGI-assay: drug-induced damage on in vitro cultured metacestodes (Pathogen Box screening cascade and EC50)
Format: cell-based, Echinococcus multilocularis
Settings: for PGI release, % of the Tx-100 control, 5d / PGI release, % of the Tx-100 control, 12d / cytotoxicity at 10 µM: 10 µM, singlets; for cytotoxicity at 10 µM: Echinococcus multilocularis; for PGI release, % of Tx-100 control, average, 5d / PGI release, % of Tx-100 control, average, 12d: confirmatory screening at 10 µM in triplicates, values as % of Tx-100 control
[1] = 120 h, 5 days of incubation, read-out: PGI release, % of the Tx-100 control, 5d
[2] = 288 h, 12 days of incubation, read-out: PGI release, % of the Tx-100 control, 12d

Row | Structure (SMILES) | PGI release, % of the Tx-100 control, 5d (5 days of incubation) | PGI release, % of the Tx-100 control, 12d (12 days of incubation) | cytotoxicity at 10 µM [1] | cytotoxicity at 10 µM [2] | PGI release, % of Tx-100 control, average, 5d (5 days of incubation) | PGI release, % of Tx-100 control, average, 12d (12 days of incubation)
1 | COc1ccc(-c2nn(C(C)C)c3ncnc(N)c23)cc1OC [MMV675993] | -5.16% | -3.42% |  |  |  | 
2 | Cc1nnc(NCc2cccc(Cl)c2)c2ccccc12 [MMV676555] | -3.14% | 1.45% |  |  |  | 
3 | CC(Oc1ccccc1)C(=O)Nc1nc(-c2ccccn2)cs1 (stereo not shown) [MMV676411] | 0.12% | 0.11% |  |  |  | 
4 | Cc1cc(Nc2ccc(C(F)(F)F)cc2)n2ccnc2n1 [MMV011229] | -0.86% | -1.35% |  |  |  | 
5 | C[C@]1(O)C[C@@H](c2nc(-c3ccc4ccc(-c5ccccc5)nc4c3)c3c(N)nccn32)C1 [MMV676605, Linsitinib, reference compound] |  |  | -0.48% | 0.47% |  | 
6 | Cc1nn(C)cc1C(C)Nc1nncc(-c2ccc(C(F)(F)F)cc2)n1 (stereo not shown) [MMV019993] | -0.77% | -1.30% |  |  |  | 
7 | COc1cccn2c(C(=O)N3CCCCC3)c(C(F)(F)F)nc12 [MMV1110498] | -3.14% | 0.63% |  |  |  | 
8 | COC(=O)C1=C(C)NC(C)=C(C(=O)OC(C)C)C1c1cccc2nonc12 (stereo not shown) [MMV001493, Isradipine, reference compound] |  |  | 0.84% | 0.0436% |  | 
9 | C[C@H](C(N)=O)N1CCCC[C@@H]1c1ccc(OCc2cccc(F)c2)cc1 [MMV676270] | -0.98% | -0.91% |  |  |  | 
10 | Cc1cccc(C(=O)Nc2ccnc(N(C)C3CCN(CC(C)C)CC3)c2)c1 [MMV024829] | 0.62% | -0.07% |  |  |  | 
11 | N=C(N)Nc1ccc(-c2ccc(-c3ccc(N=C(N)N)c(Cl)c3)o2)cc1Cl [MMV688271] | 9.82% | 13.94% |  |  |  | 
12 | COc1cccc(-n2nnnc2S(C)(=O)=O)c1 [MMV272144] | -0.69% | 0.11% |  |  |  | 
13 | COc1cc(NC(=O)Cc2nn(C)c(=O)c3ccccc23)ccc1Cl [MMV676053] | -2.85% | -1.21% |  |  |  | 
14 | Cc1cc(OCC(=O)Nc2ccc(C(C)C)cc2)n(C)c(=O)c1C#N [MMV1198433] | 2.43% | -0.19% |  |  |  | 
15 | COc1nc2ccc(Br)cc2cc1[C@@H](c1ccccc1)[C@@](O)(CCN(C)C)c1cccc2ccccc12 [MMV689758, Bedaquiline, reference compound] |  |  | 2.07% | -3.22% |  | 
16 | CC(C(=O)N1CCCC1)N1CCN(S(=O)(=O)c2ccc(C(C)(C)C)cc2)CC1 (stereo not shown) [MMV020291] | -0.20% | -0.67% |  |  |  | 
17 | NCCN(C(=O)c1ccc(Cl)cc1Cl)c1ccc(OCc2ccc(Cl)cc2)cc1 [MMV688371] | 45.68% | 52.47% |  |  | 3.16% | 3.77%
18 | O=C(c1ccc(NCCO)cc1)C1C[C@H]1c1ccc(Cl)cc1 (stereo partly shown) [MMV676877] | 0.56% | -0.18% |  |  |  | 
19 | O=C(Nc1nnc(-c2ccc(Cl)cc2)o1)c1cccc(C(F)(F)F)c1 [MMV102872] | 32.35% | 28.26% |  |  | -0.31% | -1.19%
20 | O=C(NC1CC1)c1ccc(CSCc2ccccc2Cl)o1 [MMV007803] | -0.54% | -0.13% |  |  |  | 
21 | O=[N+]([O-])c1cn2c(n1)OC[C@@H](OCc1ccc(OC(F)(F)F)cc1)C2 [MMV688755, Pretomanid, reference compound] |  |  | -0.93% | -1.01% |  | 
